This note sets out measurements from patent US20240317756A1, “INHIBITORS OF BRUTON'S TYROSINE KINASE” (Pharmacyclics LLC, priority 2006, published 2024).

Experiment [1] deals with ITK (Homo sapiens (Human), UniProt Q08881). The experiment in a line: in vitro HotSpot kinase assay, ITK. Format: biochemical. The conditions noted are these: Table 2, 1 uM ATP, one hour incubation with inhibitor.
Experiment [2] has as its target BTK (Homo sapiens (Human), UniProt Q06187). The experiment in a line: in vitro HotSpot kinase assay, BTK. The experiment is classed as biochemical. The conditions noted are these: Table 2, 1 uM ATP, one hour incubation with inhibitor.
The target of experiment [3] is JAK3 (Homo sapiens (Human), UniProt P52333). The experiment can be described thus: in vitro HotSpot kinase assay, JAK3. The experiment is classed as biochemical. The conditions noted are these: Table 2, 1 uM ATP, one hour incubation with inhibitor.
In experiment [4] the target is LCK (Homo sapiens (Human), UniProt P06239). The experiment in a line: in vitro HotSpot kinase assay, LCK. Format: biochemical. The conditions noted are these: Table 2, 1 uM ATP, one hour incubation with inhibitor.
The subject of experiment [5] is lymphoma cell line DOHH2. The experiment can be described thus: DOHH2 cell proliferation assay (Alamar Blue). The experiment is classed as cell-based. The procedure:
After 72 hours, cell number was measured using Alamar Blue using manufacturer's protocol. A dilution series of untreated cells was run in parallel to verify that the Alamar Blue assay reliably reflected cell number and that growth conditions were not limiting. […] GI50 values were confirmed in two or more separate experiments for each cell line.
Analogs are generated that are Btk inhibitors and that are cytotoxic to the lymphoma cell line DOHH2. For the DOHH2 cell proliferation assay, cells were seeded in 96-well plates in standard growth media (RPMI+10% fetal calf serum) and compounds were added in a 9-point dilution series ranging from 10 uM to 0.04 uM with DMSO at 0.1% final concentration in all wells. After 72 hours, cell number was measured using Alamar Blue using manufacturer's protocol. A dilution series of untreated cells was run in parallel to verify that the Alamar Blue assay reliably reflected cell number and that growth conditions were not limiting.
Background: Resazurin is reduced to fluorescent resorufin, in cell work by metabolically active cells.

Experiment [6] addresses EGFR (Homo sapiens (Human), UniProt P00533). The experiment in a line: in vitro HotSpot kinase assay, EGFR. Format: biochemical. The conditions noted are these: Table 2, 1 uM ATP, one hour incubation with inhibitor.
Experiment [7] is described as follows: glutathione binding assay. The conditions noted are these: 5 mM glutathione, 10 μM Btk inhibitor, room temperature, HPLC. How it is done:
A calculated value (e.g (1/Btk IC50)/Glutathione conjugation rate) as shown in the Table 2) is used to compare compounds for their ratio between potency at inhibiting their target and their non-specific binding to other SH groups, such as those in glutathione. […] Calculated ratios such as these are used to quantitatively compare different compounds and select compounds for further study.
For the glutathione binding assays, 5 mM glutathione, 10 μM Btk inhibitor in DMSO (10 μL) and 6 equivalents of N′N′ Diisopropyl ethyl amine were combined in 1 mL potassium phosphate buffer. The mixture was incubated for 0, 15, 60 minutes at room temperature and the reaction was stopped with 10 equivalents of formic acid. 50 μL of each reaction mixture was injected on HPLC (Mobil Phase A: 0.2% formic acid in water, Mobile Phase B: 0.2% formic acid in acetonitrile, HPLC Column: Metasil Basic 3μ, 150×4.6 mm, 10% B, Gradient: 10% to 90% B, Detection: UV/Vis […]). Rate of reaction was reported as nmole GSH conjugate conversion per minute from the normalized ratio for area under the curve from HPLC chromatograms for both GSH conjugate and the parent.

Sequence of LCK (P06239 whole entry, species assumed): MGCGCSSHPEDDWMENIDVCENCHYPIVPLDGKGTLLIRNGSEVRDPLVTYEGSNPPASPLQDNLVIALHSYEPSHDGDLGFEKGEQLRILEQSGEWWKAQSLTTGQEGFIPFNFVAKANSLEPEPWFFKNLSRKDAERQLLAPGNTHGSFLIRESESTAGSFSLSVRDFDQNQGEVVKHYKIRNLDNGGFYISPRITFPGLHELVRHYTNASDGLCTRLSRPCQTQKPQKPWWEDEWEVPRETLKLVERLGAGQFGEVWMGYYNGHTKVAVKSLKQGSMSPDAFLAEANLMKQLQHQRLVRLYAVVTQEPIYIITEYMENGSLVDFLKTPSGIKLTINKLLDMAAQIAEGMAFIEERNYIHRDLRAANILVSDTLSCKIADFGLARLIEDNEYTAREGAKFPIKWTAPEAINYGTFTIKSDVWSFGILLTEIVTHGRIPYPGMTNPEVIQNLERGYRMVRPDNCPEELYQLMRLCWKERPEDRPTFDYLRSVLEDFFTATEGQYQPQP
Sequence of ITK (Q08881 whole entry, species assumed): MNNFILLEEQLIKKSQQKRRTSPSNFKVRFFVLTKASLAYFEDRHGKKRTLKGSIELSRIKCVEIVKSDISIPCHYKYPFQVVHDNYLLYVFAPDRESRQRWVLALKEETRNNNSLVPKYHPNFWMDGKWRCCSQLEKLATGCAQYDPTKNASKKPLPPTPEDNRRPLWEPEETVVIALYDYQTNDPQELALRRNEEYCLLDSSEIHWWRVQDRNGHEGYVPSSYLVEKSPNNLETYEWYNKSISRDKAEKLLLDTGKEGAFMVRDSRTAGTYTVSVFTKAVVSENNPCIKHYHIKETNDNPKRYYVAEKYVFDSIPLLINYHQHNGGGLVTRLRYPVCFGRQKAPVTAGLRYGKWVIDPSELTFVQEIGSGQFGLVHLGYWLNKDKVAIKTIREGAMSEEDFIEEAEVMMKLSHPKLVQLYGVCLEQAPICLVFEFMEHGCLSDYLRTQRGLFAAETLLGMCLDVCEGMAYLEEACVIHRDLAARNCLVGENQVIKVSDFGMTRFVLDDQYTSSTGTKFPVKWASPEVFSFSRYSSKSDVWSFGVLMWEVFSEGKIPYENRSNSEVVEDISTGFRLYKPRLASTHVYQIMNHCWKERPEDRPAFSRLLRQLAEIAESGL
Sequence of JAK3 (P52333 whole entry, species assumed): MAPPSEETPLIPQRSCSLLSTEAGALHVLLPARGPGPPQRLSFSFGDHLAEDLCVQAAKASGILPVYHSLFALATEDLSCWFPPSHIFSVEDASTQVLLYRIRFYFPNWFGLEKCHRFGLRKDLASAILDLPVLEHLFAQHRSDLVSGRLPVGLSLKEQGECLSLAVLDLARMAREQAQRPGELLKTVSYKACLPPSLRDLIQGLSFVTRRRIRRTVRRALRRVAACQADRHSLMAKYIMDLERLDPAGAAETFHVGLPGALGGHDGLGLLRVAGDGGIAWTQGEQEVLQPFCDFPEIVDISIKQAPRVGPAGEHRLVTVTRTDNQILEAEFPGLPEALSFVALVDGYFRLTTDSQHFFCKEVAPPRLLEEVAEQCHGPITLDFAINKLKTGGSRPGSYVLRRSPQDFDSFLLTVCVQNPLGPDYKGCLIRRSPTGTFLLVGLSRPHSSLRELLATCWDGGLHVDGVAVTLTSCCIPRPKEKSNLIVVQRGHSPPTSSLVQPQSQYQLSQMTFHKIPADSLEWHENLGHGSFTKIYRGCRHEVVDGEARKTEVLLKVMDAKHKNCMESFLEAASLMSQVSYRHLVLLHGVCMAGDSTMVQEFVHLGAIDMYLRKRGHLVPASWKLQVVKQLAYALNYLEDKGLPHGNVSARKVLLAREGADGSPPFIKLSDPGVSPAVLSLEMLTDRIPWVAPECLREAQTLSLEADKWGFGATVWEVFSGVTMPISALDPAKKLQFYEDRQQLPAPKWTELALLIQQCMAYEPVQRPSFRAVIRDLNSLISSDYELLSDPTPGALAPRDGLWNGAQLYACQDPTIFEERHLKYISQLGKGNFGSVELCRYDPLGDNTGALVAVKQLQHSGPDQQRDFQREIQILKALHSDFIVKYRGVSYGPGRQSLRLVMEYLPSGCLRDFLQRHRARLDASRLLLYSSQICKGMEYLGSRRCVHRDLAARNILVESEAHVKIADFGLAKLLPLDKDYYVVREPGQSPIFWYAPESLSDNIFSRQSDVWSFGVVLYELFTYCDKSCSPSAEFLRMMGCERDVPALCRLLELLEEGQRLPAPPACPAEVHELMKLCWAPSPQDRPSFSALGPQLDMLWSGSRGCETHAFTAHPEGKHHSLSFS
Sequence of BTK (Q06187 whole entry): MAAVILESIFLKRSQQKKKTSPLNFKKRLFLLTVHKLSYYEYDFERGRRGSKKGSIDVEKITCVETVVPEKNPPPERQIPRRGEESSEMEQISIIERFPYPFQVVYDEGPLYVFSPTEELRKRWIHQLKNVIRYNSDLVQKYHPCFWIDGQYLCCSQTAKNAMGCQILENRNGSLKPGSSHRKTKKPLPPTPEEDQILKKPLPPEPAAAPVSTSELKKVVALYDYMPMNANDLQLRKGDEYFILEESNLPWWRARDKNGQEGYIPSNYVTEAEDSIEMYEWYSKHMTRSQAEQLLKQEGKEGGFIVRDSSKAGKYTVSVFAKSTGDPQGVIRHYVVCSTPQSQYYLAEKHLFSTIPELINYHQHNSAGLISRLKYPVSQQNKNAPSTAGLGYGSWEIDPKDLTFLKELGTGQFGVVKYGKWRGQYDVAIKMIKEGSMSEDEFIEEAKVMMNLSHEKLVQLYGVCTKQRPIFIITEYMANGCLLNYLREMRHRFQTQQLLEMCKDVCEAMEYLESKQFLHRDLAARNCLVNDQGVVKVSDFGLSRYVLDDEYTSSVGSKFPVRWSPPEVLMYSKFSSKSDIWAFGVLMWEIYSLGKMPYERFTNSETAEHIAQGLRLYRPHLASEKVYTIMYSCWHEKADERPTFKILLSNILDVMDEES

As usually defined, the IC50 is the concentration that inhibits the measured activity by half. Usually GI50 stands for the concentration that inhibits growth by half. Low values mean greater sensitivity of the cells, high ones lower sensitivity of the cells. On to `CN(C)C/C=C/C(=O)N[C@H]1CC[C@H](n2nc(-c3ccc(Oc4ccccc4)cc3)c3c(N)ncnc32)CC1` [Compound 18], for which the IC50 in experiment [1] was 2540 nM; in experiment [2], 1.38 nM; in experiment [3] it was more than 10000 nM; in experiment [4] it was 0.76 nM; in experiment [6] it was 22.5 nM. Moreover, in experiment [5] (72 hours), the GI50 is less than 30 nM.

Regarding `Nc1ncnc2c1c(-c1ccc(Oc3ccccc3)cc1)nn2C[C@@H]1CCCN1C(=O)/C=C/CN1CCOCC1` [Compound 21], the IC50 in experiment [1] is more than 10000 nM; in experiment [2] it was 4.15 nM; in experiment [3] it was more than 10000 nM; in experiment [4], 1350 nM; in experiment [6], 6240 nM. Growth in experiment [5] (72 hours) was halved (GI50) at 1530 nM.

Regarding `CC#CC(=O)N1CCC[C@H]1Cn1nc(-c2ccc(Oc3ccccc3)cc2)c2c(N)ncnc21` [Compound 16, 1-((S)-2-((4-amino-3-(4-phenoxyphenyl)-1H-pyrazolo[3,4-d]pyrimidin-1-yl)methyl)pyrrolidin-1-yl)but-2-yn-1-one], the IC50 is more than 10000 nM in experiment [1]; 3.14 nM in experiment [2]; more than 10000 nM in experiment [3]; 3.82 nM in experiment [4]; 2810 nM in experiment [6]. In experiment [5] (Homo sapiens, DOHH-2, 72 hours), this molecule gave a GI50 of 210 nM.

In the case of `CN(C)C/C=C/C(=O)N1CCC[C@@H]1Cn1nc(-c2ccc(Oc3ccccc3)cc2)c2c(N)ncnc21` [Compound 11, (E)-1-((R)-2-((4-amino-3-(4-phenoxyphenyl)-1H-pyrazolo[3,4-d]pyrimidin-1-yl)methyl)pyrolidin-1-yl)-4-(dimethylamino)but-2-en-1-one], the IC50 in experiment [1] is 6890 nM; in experiment [2] it was 0.92 nM; in experiment [3], more than 10000 nM; in experiment [4], 2.43 nM; in experiment [6], 18.9 nM. The “Glutathione Conj Rate” value in experiment [7] was determined as 0.004525 nmol/min. The GI50 in experiment [5] (Homo sapiens, DOHH-2, 72 hours) was more than 10000 nM.

For `Nc1ncnc2c1c(-c1ccc(Oc3ccccc3)cc1)nn2C1CCCN(C(=O)/C=C/CN2CCOCC2)C1` (stereo not shown) [Compound 5, (E)-1-(3-(4-amino-3-(4-phenoxyphenyl)-1H-pyrazolo[3,4-d]pyrimidin-1-yl)piperidin-1-yl)-4-morpholinobut-2-en-1-one], the IC50 is 5.6 nM in experiment [2] and 326 nM in experiment [6]. In addition, in experiment [7], the “Glutathione Conj Rate” value is 0.004 nmol/min.

With “(E)-4-(N-(2-hydroxyethyl)-N-methylamino)-1-(3-(4-phenoxyphenyl)-1H-pyrazolo[3,4-d]pyrimidin-1-yl)piperidin-1-yl)but-2-en-1-one [Compound 3]”, the IC50 is 21 nM in experiment [2] and 74.5 nM in experiment [6].

In the case of `Nc1ncnc2c1c(-c1ccc(Oc3ccccc3)cc1)nn2[C@@H]1CCCN(C(=O)/C=C/CN2CCOCC2)C1` [Compound 24, (E)-1-((R)-3-(4-amino-3-(4-phenoxyphenyl)-1H-pyrazolo[3,4-d]pyrimidin-1-yl)piperidin-1-yl)-4-morpholinobut-2-en-1-one], the IC50 was found to be 476 nM in experiment [1]; 0.89 nM in experiment [2]; 9080 nM in experiment [3]; 235 nM in experiment [4]; 384 nM in experiment [6]. The molecule also came in with a GI50 in experiment [5] (Homo sapiens, DOHH-2, 72 hours) of 440 nM.

In the case of `C=CC(=O)N1CCC[C@@H]1Cn1nc(-c2ccc(Oc3ccccc3)cc2)c2c(N)ncnc21` [Compound 13, 1-((R)-2-((4-amino-3-(4-phenoxyphenyl)-1H-pyrazolo[3,4-d]pyrimidin-1-yl)methyl)pyrrolidin-1-yl)prop-2-en-1-one], the IC50 is 3010 nM in experiment [1]; 0.67 nM in experiment [2]; 13000 nM in experiment [3]; 1.56 nM in experiment [4]; 18.8 nM in experiment [6]. Besides, the GI50 in experiment [5] (Homo sapiens, DOHH-2, 72 hours) came out at 240 nM.

With `C=CC(=O)N1CCC[C@H]1Cn1nc(-c2ccc(Oc3ccccc3)cc2)c2c(N)ncnc21` [Compound 14, 1-((S)-2-((4-amino-3-(4-phenoxyphenyl)-1H-pyrazolo[3,4-d]pyrimidin-1-yl)methyl)pyrrolidin-1-yl)prop-2-en-1-one], the half-inhibitory concentration (IC50) is 592 nM in experiment [1]; 0.39 nM in experiment [2]; 1460 nM in experiment [3]; 9.24 nM in experiment [4]; 2.3 nM in experiment [6]. The same molecule displayed a GI50 in experiment [5] (Homo sapiens, DOHH-2, 72 hours) of 370 nM.

Consider `C=CC(=O)N[C@H]1CC[C@H](n2nc(-c3ccc(Oc4ccccc4)cc3)c3c(N)ncnc32)CC1` [Compound 10, N-((1r,4r)-4-(4-amino-3-(4-phenoxyphenyl)-1H-pyrazolo[3,4-d]pyrimidin-1-yl)cyclohexyl)acrylamide], for which the IC50 in experiment [1] is 1950 nM; in experiment [3] it was more than 10000 nM. Further, in experiment [5] (Homo sapiens, DOHH-2, 72 hours), the GI50 was less than 30 nM.

`C=CC(=O)N(C)CCn1nc(-c2ccc(Oc3ccccc3)cc2)c2c(N)ncnc21` [Compound 19, N-(2-(4-amino-3-(4-phenoxyphenyl)-1H-pyrazolo[3,4-d]pyrimidin-1-yl)ethyl)-N-methylacrylamide]: the IC50 in experiment [1] is 535 nM; in experiment [2] it was 1.58 nM; in experiment [3], 6000 nM; in experiment [4], 6.62 nM. In addition, the 50% growth inhibitory concentration (GI50) in experiment [5] (Homo sapiens, DOHH-2, 72 hours) was 690 nM.

In the case of `Nc1ncnc2c1c(-c1ccc(Oc3ccccc3)cc1)nn2C1CCN(C(=O)/C=C/CN2CCOCC2)CC1` [Compound 20], the concentration for half-maximal inhibition (IC50) in experiment [1] was 7990 nM; in experiment [2], 4.07 nM; in experiment [3], more than 10000 nM; in experiment [4], 98.6 nM; in experiment [6], 304 nM. Further, in experiment [5] (72 hours), the GI50 is 390 nM.

`C=CC(=O)N1CCC(n2nc(-c3ccc(Oc4ccccc4)cc3)c3c(N)ncnc32)CC1` [Compound 6] showed an IC50 in experiment [2] of 3.1 nM. The “Glutathione Conj Rate” value in experiment [7] is recorded as 0.39 nmol/min.

Turning to `CC#CC(=O)N1CCC[C@@H]1Cn1nc(-c2ccc(Oc3ccccc3)cc2)c2c(N)ncnc21` [Compound 15, 1((R)-2-((4-amino-3-(4-phenoxyphenyl)-1H-pyrazolo[3,4-d]pyrimidin-1-yl)methyl)pyrrolidin-1-yl)but-2-yn-1-one], the IC50 in experiment [1] is 21100 nM; in experiment [2] it was 4.16 nM; in experiment [3], more than 10000 nM; in experiment [4], 5.9 nM; in experiment [6], 289 nM. This molecule also returned a GI50 in experiment [5] (Homo sapiens, DOHH-2, 72 hours) of 590 nM.

On to `C=CC(=O)NCCn1nc(-c2ccc(Oc3ccccc3)cc2)c2c(N)ncnc21` [Compound 23, N-(2-(4-amino-3-(4-phenoxyphenyl)-1H-pyrazolo[3,4-d]pyrimidin-1-yl)ethyl)acrylamide], for which the IC50 was found to be 830 nM in experiment [1]; 0.32 nM in experiment [2]; 3310 nM in experiment [3]; 208 nM in experiment [4]; 70.5 nM in experiment [6]. The molecule further showed a GI50 in experiment [5] (Homo sapiens, DOHH-2, 72 hours) of 110 nM.

In the case of `Nc1ncnc2c1c(-c1ccc(Oc3ccccc3)cc1)nn2[C@H]1CC[C@@H](NC(=O)/C=C/CN2CCOCC2)CC1` [Compound 25, (E)-N-((1s,4s)-4-(4-amino-3-(4-phenoxyphenyl)-1H-pyrazolo[3,4-d]pyrimidin-1-yl)cyclohexyl)-4-morpholinobut-2-enamide], the IC50 in experiment [1] was more than 10000 nM; in experiment [2], 3.48 nM; in experiment [3], more than 10000 nM; in experiment [4], 25.8 nM; in experiment [6], 273 nM. Also, in experiment [5] (72 hours), the GI50 worked out at 50 nM.
